Test results as given in patent US20230220353A1, “IN VITRO LIVER ORGANOIDS AND MINI-BILE DUCT MODELS OF BILIARY ARTRESIA AND APPLICATIONS THEREOF” (priority 2022, published 2023).

Tests used:
[1] = tested on: human liver organoids; assay: FITC-labeled dextran diffusion test (tight junction barrier integrity); assay type: cell-based; details: day-2 treated organoids, after 10 minutes of incubation; not observed in control
Experimental: In order to determine the integrity of liver organoids, a FITC-labeled dextran diffusion test was carried out to investigate if biliatresone-treated organoids has defects in the tight junction barrier for solutes. […] The fluorescent intensity of liver organoids was imaged using laser confocal microscopy at 10 and 30 minutes.

[2] = tested on: human liver organoids; assay: Growth and morphology of human liver organoids (Hematoxylin and Eosin staining); assay type: cell-based; details: 2 μg/ml biliatresone
Experimental: Briefly, liver biopsy was minced and digested in gentle MACS-C Tube with 5 ml digestion medium (Multi Tissue Dissociation Kit 1), filtered (70 μm and 30 μm) and sorted by human CD326 (EpCAM) magnetic beads. CD326 positive cells were mixed with Matrigel (50,000 cells in 50 μl) and added to each well of a four-well culture plate (Nunc™ 4-Well Dishes). After Matrigel solidification, organoid medium (Advanced DMEM/F12 supplemented with 1% Penicillin/Streptomycin (Invitrogen), 250 ng/ml Amphotericin B (GIBCO), […], 1% N2 and 1% B27(GIBCO), 1.25 mM N-Acetylcysteine (Sigma), 10 nM gastrin (Sigma), and the growth factors: 50 ng/ml mEGF (Peprotech), 100 ng/ml FGF10 (Peprotech), 25 ng/ml HGF (Peprotech), 10 mM Nicotinamide (Sigma), 5 μM A83.01 (Tocris), and 10 μM FSK (Tocris), 25 ng/ml Noggin (Peprotech), 500 ng/ml R-Spondin 1 (R&D), 100 ng/ml Wnt3a (R&D), 10 μM Y27632 (Sigma Aldrich)) was added for organoid culturing. The medium was changed every three days. After culturing for 5 days, biliatresone solution (2867, Axon MEDCHEM; 2 μg/ml in DMSO) was added into the medium and the organoids were cultured for different periods for subsequent analysis. For the untreated control culture, DMSO (same volume as biliatresone) was added to the culture. FIG. 1 is a schematic diagram of the generation of biliatresone treated human liver organoids. […]

[3] = target: MDR1 (Homo sapiens, UniProt P08183); assay: MDR1 activity assay (MDR1-mediated Rhodamine 123 transport assay); details: day-2 biliatresone-treated organoids, Rhodamine 123 100 μM, 30 minutes
Experimental: A MDR1 activity assay (MDR1-mediated Rhodamine 123 (R123) transport assay) was then performed to investigate the defective cholangiocyte differentiation of biliatresone-treated organoids.
Afterward, the liver organoids were washed with PBS and incubated in culture medium containing Rhodamine 123 (100 μM) at 37° C. for 30 minutes. After washing with PBS, the fluorescence of liver organoids was then visualized by laser confocal microscopy (Leica) immediately (as 0 minutes) and after 30 minutes incubation in culture medium.

[4] = tested on: human liver organoids; assay: Immunostaining of human liver organoids for differentiation, polarity, cytoskeleton and β-amyloid markers; assay type: cell-based
Experimental: Hepatocytic differentiation in human organoids was assessed by immuno-fluorescence for hepatocyte maker (HNF4A). Organoids in the Matrigel were washed with PBS (phosphate-buffered saline) before being fixed with 4% paraformaldehyde at room temperature for 20 minutes. The organoids were permeabilized with Triton X-100 (0.5% in PBS) for 20 minutes and blocked with 3% bovine serum albumin (BSA, Sigma-Aldrich) in PBS with 0.05% Triton X-100 (PBST) for 30 minutes at room temperature. The organoids were then incubated in primary antibodies (diluted in PBST with 3% BSA) at 4° C. overnight. After PBST washes (5 minutes for 3 times), organoids were incubated in secondary antibodies (diluted in PBST with 3% BSA) for 2 hours at room temperature. Afterward, the organoids were rinsed with PBS 3 times and incubated with DAPI solution for 30 minutes at room temperature. The organoids were rinsed with PBS (5 minutes for 3 times). Primary and secondary antibodies used in this examples were anti-ZO-1 (1:50, RA231621, Thermo Fisher), anti-CK19 (1:200, ab220193, Abcam), anti-F-actin (1:500, A22287, Thermo Fisher), anti-beta-amyloid (1:200, SIG-39220, 4G8, BioLegend), anti-HNF4A (1:50, ab201460, Abcam), Alexa Fluor 488 (1:500, A11008, Invitrogen) and Alexa Fluor 594 (1:500, A11032, Invitrogen).
(§1) Organoids were imaged on a laser confocal microscopy (Leica) equipped with a 20× dry objective and a 63× oil-immersion objective. Images were analyzed using ImageJ software. For quantification of the number of cilia from each group, the organoids were imaged using confocal microscopy (0.8 μm Z-axis interval, 40 μm in thickness). Maximum intensity projection was performed for visualization of the cilia in the organoids. FIG. 3A are representative images of control and day-2 biliatresone-treated human liver organoids stained for HNF4A (green). Nuclei were stained with DAPI (blue). The percentage of HNF4A positive cells in control and day-2 biliatresone-treated organoids were determined by counting the total number of cells and HNF4A+ cells of the organoids. Number of organoids counted in each group=3; *, p<0.05, student's t-test; error bars indicated the standard deviation.
To test if biliatresone induces apical-basal polarity defects in human organoids, the control group and biliatresone-treated organoids were stained with anti-ZO-1 antibody. FIG. 4 depicts the result of immunostaining of control and day-2 biliatresone-treated human liver organoids for ZO-1 (green) and CK19 (red). Nuclei were stained with DAPI (blue).
To investigate if biliatresone also induces cytoskeleton defects and Aβ accumulation in human organoids, Immunostaining was carried out for the control and day-2 biliatresone-treated human liver organoids for cytoskeleton protein F-actin (green) and β-amyloid (red). Nuclei were stained with DAPI (blue).
The percentages of β-amyloid positive cells in control and day-2 biliatresone-treated organoids were determined by counting total number of cells and β-amyloid+ cells of the organoids. Number of organoids counted in each group=3; *, p<0.05, student's t-test; error bars indicated the standard deviation.

[5] = tested on: GSH; assay: GSH level in liver organoids; assay type: cell-based, human
Experimental: GSH levels were measured in liver organoids from 0 to 48 hours without (Ctrl) or with biliatresone. Data was obtained from 3 wells in each group; *, p<0.05, student's t-test; error bars indicated the standard deviation.

[6] = tested on: human cholangiocytes; assay: Cilia mechano-sensory calcium influx assay in mini-bile duct under shear flow (Calbryte 520); assay type: cell-based; details: 2 μg/ml for 5 days, shear flow 1 dyne/cm2, vs untreated cholangiocytes
Experimental: The organoids were released from the Matrigel by cold Advanced DMEM. The organoid pellets were obtained by centrifugation at 300 g, 3 minutes. Afterwards, the organoids were digested for 5 minutes at 37° C. via 1 mL of TrypLE Express Enzyme (1×). About 5,000 of organoid cells were seeded into each channel of the Matrigel coated 6-channel ibidi microfluidic chips (80607, ibidi), and the microfluidic chips were incubated at 37° C. in incubator. At day 3, monoloayer of cholangiocytes was formed representing the mini-bile duct with the luminal side facing the medium and the basal side facing the bottom of the microfluidic chips. To prepare for the calcium influx measurement, cholangiocyte monolayer was first incubated with 5 μM of Calbryte 520-AM (ATT) (prepared in Hanks' balanced salt solution, HBSS) for 1 hour at 37° C. Then, the cholangiocytes were washed with HBSS (5 minutes for 3 times). […] Time-lapse images were acquired for green fluorescence for 20 seconds (1-second intervals and 10 milliseconds exposure time) using Nikon Ti2e microscope (Nikon, Japan). […]
On day 3 post confluence, cholangiocytes were incubated with 5 μM of Calbryte 520-AM (ATT) (prepared in Hanks' balanced salt solution, HBSS) for 1 hour at 37° C. […] Time-lapse images were acquired for green fluorescence for 20 seconds (1-second intervals and 10 milliseconds exposure time) using Nikon Ti2e microscope (Nikon, Japan). […]

[7] = tested on: human liver organoids; assay: Ciliated cholangiocyte count (pericentrin / acetylated α-tubulin immunostaining); assay type: cell-based
Experimental: as §1
To investigate if biliatresone disturbed ciliogenesis in human organoids, control organoids and biliatresone-treated organoids were immuno-stained for ciliary proteins Pericentrin (PCNT) and alpha-tubulin. […] The percentages of ciliated cells in control and biliatresone-treated organoids were determined by counting total number of cells and ciliated cells of the organoids. Number of organoids counted in each group=3; *, p<0.05, student's t-test; error bars indicated the standard deviation.

[8] = tested on: SOX17; assay: SOX17 mRNA expression by real-time PCR normalized to GAPDH; assay type: cell-based, human; details: day-2 treated organoids vs control
Source text: Gene expressions in liver ductal organoids with or without biliatresone treatment for 2 day and 5 days were investigated. mRNA expression levels were characterized by real-time PCR for SOX17 normalized to GAPDH.

[9] = day-2 treated organoids vs control

MDR1, sequence (P08183 whole entry): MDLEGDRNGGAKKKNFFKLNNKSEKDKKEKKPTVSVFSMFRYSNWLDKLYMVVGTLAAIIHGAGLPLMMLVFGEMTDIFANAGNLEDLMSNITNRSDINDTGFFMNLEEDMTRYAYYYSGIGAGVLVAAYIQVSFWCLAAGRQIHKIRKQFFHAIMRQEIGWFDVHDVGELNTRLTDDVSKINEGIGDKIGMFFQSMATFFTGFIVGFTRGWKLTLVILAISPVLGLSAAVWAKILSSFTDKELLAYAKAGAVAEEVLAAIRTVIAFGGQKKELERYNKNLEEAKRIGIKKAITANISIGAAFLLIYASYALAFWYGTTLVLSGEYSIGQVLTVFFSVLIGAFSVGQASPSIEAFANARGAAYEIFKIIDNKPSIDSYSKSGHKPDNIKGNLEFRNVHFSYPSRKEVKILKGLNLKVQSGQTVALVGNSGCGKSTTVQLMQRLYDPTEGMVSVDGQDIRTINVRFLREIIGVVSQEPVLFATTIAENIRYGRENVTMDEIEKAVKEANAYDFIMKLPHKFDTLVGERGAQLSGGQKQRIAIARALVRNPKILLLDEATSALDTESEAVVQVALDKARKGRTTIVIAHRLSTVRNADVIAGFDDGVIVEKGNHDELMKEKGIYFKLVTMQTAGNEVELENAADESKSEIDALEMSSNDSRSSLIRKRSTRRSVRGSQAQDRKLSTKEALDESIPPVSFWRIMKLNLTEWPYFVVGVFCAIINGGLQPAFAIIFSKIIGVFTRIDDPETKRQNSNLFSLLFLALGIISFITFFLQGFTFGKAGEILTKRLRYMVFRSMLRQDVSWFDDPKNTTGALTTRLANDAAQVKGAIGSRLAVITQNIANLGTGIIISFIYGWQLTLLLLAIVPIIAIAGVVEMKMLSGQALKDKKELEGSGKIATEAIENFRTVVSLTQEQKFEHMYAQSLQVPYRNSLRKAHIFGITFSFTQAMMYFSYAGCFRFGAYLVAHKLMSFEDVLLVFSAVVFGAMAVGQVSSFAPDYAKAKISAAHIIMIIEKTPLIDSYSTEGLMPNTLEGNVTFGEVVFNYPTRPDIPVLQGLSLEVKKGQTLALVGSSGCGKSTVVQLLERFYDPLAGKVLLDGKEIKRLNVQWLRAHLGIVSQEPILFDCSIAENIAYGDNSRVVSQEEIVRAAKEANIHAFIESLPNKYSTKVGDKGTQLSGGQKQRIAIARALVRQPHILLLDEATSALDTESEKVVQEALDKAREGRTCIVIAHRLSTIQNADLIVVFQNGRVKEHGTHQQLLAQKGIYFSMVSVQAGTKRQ

C=C(C(=O)c1c(OC)cc2c(c1OC)OCO2)c1ccccc1O [biliatresone, Biliatresone]
FITC-dextran (10 kDa) localization [1]: localize in the lumen | organoid morphology ([2]; day 5, vs DMSO control): not well-expanded | organoid diameter ([2]; day 5, control organoids 25-100 μm): 5-20 μm | R123 transport across the organoid membrane [3]: very inefficient | percentage of Aβ positive cells ([4]; day-2 treated culture vs control culture (no Aβ positive cells in control), p<0.05): significantly higher | ZO-1 immuno-reactivity [4, 9]: markedly reduced | expression of cholangiocyte MDR1 [4, 9]: drastically reduced | percentage of HNF4A+ cells in organoids ([4]; day-2 treated organoids, 2 μg/ml, Mean±SD, n=3, control 14.9±2%): 57.3±8% | F-actin localization ([4]; day-2 treated organoids, control: apical side only): both the apical and the basal sides | expression of cholangiocyte marker CK19 ([4]; treated organoids vs control): drastically reduced | GSH level ([5]; 6, 24 and 48 hours of treatment): restored | GSH level ([5]; 3 hours of treatment vs control): small but significant drop | extent of calcium influx [6]: significantly reduced | percentage of evoked cells after perfusion stimulation [6]: significantly reduced | percentage of ciliated cells ([7]; day 1 of treatment, Mean±SD, control 10.7±5%): 4.2±2% | percentage of ciliated cells ([7]; day 3 of treatment): 0% | SOX17 expression [8]: small but significant drop
